From patent US20090238808A1, “Process for the identification of novel enzyme interacting compounds” (priority 2005, published 2009)

Key:
[1] = molecular target: T1, proteins captured on kinobeads from Jurkat cell lysate (Homo sapiens, UniProt P28482); assay: In-lysate competition binding with kinobeads, Jurkat lysate, iTRAQ MS, relative intensity of identified proteins (Table 22); details: DMSO control = 1.0
T1 construct: endogenous in cells; host or cells: Jurkat clone E6-1 lysate
Protocol: (§1) This example illustrates competition binding in cell lysates (see particularly the third aspect of the invention). A test compound, Bisindolylmaleimide VIII (Bis VIII, a well known kinase inhibitor; Davies et al., 2000. Specificity and mechanism of action of some commonly used protein kinase inhibitors. Biochemical Journal 351 (Pt 1): 95-105) was added to a cell lysate thereby allowing the test compound to bind to the target proteins in the lysate. Then the lysate was contacted with the kinobeads affinity matrix to capture remaining free target proteins. The proteins bound to the kinobeads matrix were then eluted with detergent-containing buffer, separated on a SDS-polyacryamide gel and analyzed by immunodetection (Western blots) or mass spectrometry detection.
(§2) For the quantitative detection of proteins by mass spectrometry proteins were eluted from the affinity matrix and subsequently separated by SDS-Polyacrylamide gel elecrophoresis. Suitable gel areas were cut out and subjected to in-gel proteolytic digestion with trypsin.
(§3) Four tryptic digest samples (corresponding to three different Bis VIII concentrations in the lysate and one DMSO control) were labeled with ITRAQ reagents and the combined samples were analyzed in a single LC-MS/MS mass spectrometry analysis followed by peak quantification in the MS/MS spectrum (Ross et al., 2004. Multiplexed protein quantitation in Saccharomyces cerevisiae using amine-reactive isobaric tagging reagents. Mol. Cell. Proteomics 3(12): 1154-1169). […] Binding curves for individual kinases are shown (FIG. 5). The relative intensity 50 (RI50) values representing the affinity of kinase-compound pairs are similar to IC50 values reported by kinase enzyme assays (Davies et al., 2000. Specificity and mechanism of action of some commonly used protein kinase inhibitors. Biochemical Journal 351 (Pt 1): 95-105).
(§4) Aliqots of Jurkat lysate (10 mg protein) were incubated with different Bis VIII concentrations for one hour at 4° C. (0.025 μM, 0.074 μM, 0.22 μM, 0.67 μM, 2.0 μM and 6.0 μM final concentration of Bis VIII). To this end Bis VIII solutions were prepared in 100% DMSO as solvent that corresponded to 200 fold desired final Bis VIII concentration (Bis VIII from Alexis Biochemicals cat. number ALX 270-056). Five μl of these solutions were added to 1 ml of lysate resulting in the indicated final concentrations. For a control experiment 5 μl of DMSO without Bis VIII were used.
(§5) To each preincubated lysate sample 40 μl of kinobeads (see example 1) were added and incubated for one hour at 4° C. During the incubation the tubes were rotated on an end-over-end shaker (Roto Shake Genie, Scientific Industries Inc.). Beads were collected by centrifugation, transfered to Mobicol-columns (MoBiTech 10055) and washed with 10 ml 1×DP buffer containing 0.4% NP40 detergent, followed by a wash with 5 ml 1×DP buffer with 0.2% NP40. To elute the bound proteins, 100 μl 2×SDS sample buffer was added, the column was heated for 30 minutes at 50° C. and the eluate was transferred to a microfuge tube by centrifugation. Proteins were then separated by SDS-Polyacrylamide electrophoresis (SDS-PAGE). The composition and preparation of buffers is described in example 2.
(§6) The peptide extracts of samples treated with different concentrations of the test compound (0.074 μM, 0.22 μM and 0.67 μM Bis VIII) and the solvent control (0.5% DMSO) were treated with different isomers of the isobaric tagging reagent (iTRAQ Reagents Multiplex Kit, part number 4352135, Applied Biosystems, Foster City, Calif., USA). The iTRAQ reagents are a set of multiplexed, amine-specific, stable isotope reagents that can label all peptides in up to four different biological samples enabling simultaneous identification and quantitation of peptides. The iTRAQ reagents were used according to instructions provided by the manufacturer. […]

[2] = molecular target: T2, proteins captured on kinobeads from Jurkat cell lysate (Homo sapiens, UniProt Q00535); assay: as above; details: DMSO control = 1.0
T2 construct: endogenous in cells; host or cells: Jurkat clone E6-1 lysate
Protocol: as §1, §2, §3, §4, §5, §6

[3] = molecular target: T3, proteins captured on kinobeads from Jurkat cell lysate (Homo sapiens, UniProt P07947); assay: as above; details: DMSO control = 1.0
T3 construct: endogenous in cells; host or cells: Jurkat clone E6-1 lysate
Protocol: as §1, §2, §3, §4, §5, §6

[4] = molecular target: T4, proteins captured on kinobeads from Jurkat cell lysate (Homo sapiens, UniProt P48729); assay: as above; details: DMSO control = 1.0
T4 construct: endogenous in cells; host or cells: Jurkat clone E6-1 lysate
Protocol: as §1, §2, §3, §4, §5, §6

[5] = molecular target: T5, proteins captured on kinobeads from Jurkat cell lysate (Homo sapiens, UniProt P50613); assay: as above; details: DMSO control = 1.0
T5 construct: endogenous in cells; host or cells: Jurkat clone E6-1 lysate
Protocol: as §1, §2, §3, §4, §5, §6

[6] = molecular target: T6, proteins captured on kinobeads from Jurkat cell lysate (Homo sapiens, UniProt P16083); assay: as above; details: DMSO control = 1.0
T6 construct: endogenous in cells; host or cells: Jurkat clone E6-1 lysate
Protocol: as §1, §2, §3, §4, §5, §6

[7] = molecular target: T7, proteins captured on kinobeads from Jurkat cell lysate (Homo sapiens, UniProt Q96GD4); assay: as above; details: DMSO control = 1.0
T7 construct: endogenous in cells; host or cells: Jurkat clone E6-1 lysate
Protocol: as §1, §2, §3, §4, §5, §6

[8] = molecular target: T8, proteins captured on kinobeads from Jurkat cell lysate (Homo sapiens, UniProt Q13555); assay: as above; details: DMSO control = 1.0
T8 construct: endogenous in cells; host or cells: Jurkat clone E6-1 lysate
Protocol: as §1, §2, §3, §4, §5, §6

[9] = molecular target: T9, proteins captured on kinobeads from Jurkat cell lysate (Homo sapiens, UniProt P06241); assay: as above; details: DMSO control = 1.0
T9 construct: endogenous in cells; host or cells: Jurkat clone E6-1 lysate
Protocol: as §1, §2, §3, §4, §5, §6

[10] = molecular target: T10, proteins captured on kinobeads from Jurkat cell lysate (Homo sapiens, UniProt Q9UHD2); assay: as above; details: DMSO control = 1.0
T10 construct: endogenous in cells; host or cells: Jurkat clone E6-1 lysate
Protocol: as §1, §2, §3, §4, §5, §6

protein kinase C beta = protein kinase C beta (Homo sapiens, UniProt P05771); assay: In-lysate competition binding with kinobeads, Jurkat lysate, iTRAQ MS; details: for Relative Intensity, PKCb (PRKCB1): DMSO control = 1.0
Protocol: as §1, §2, §3, §4, §5, §6

protein kinase C alpha = molecular target: T11, protein kinase C alpha (Homo sapiens, UniProt P17252); assay: as above; details: for Relative Intensity, PKCa (PRKCA): DMSO control = 1.0
T11 construct: Aliqots of Jurkat lysate (10 mg protein) were incubated with different Bis VIII concentrations; endogenous in cells; host or cells: Jurkat clone E6-1 lysate
Protocol: as §1, §2, §3, §4, §5, §6

[11] = molecular target: T12, Glycogen Synthase Kinase 3 beta (Homo sapiens, UniProt P49841); assay: as above; details: for Relative Intensity, GSK3B: DMSO control = 1.0
T12 construct: Aliqots of Jurkat lysate (10 mg protein) were incubated with different Bis VIII concentrations; endogenous in cells; host or cells: Jurkat clone E6-1 lysate
Protocol: as §1, §2, §3, §4, §5, §6

[12] = molecular target: T13, Glycogen Synthase Kinase 3 alpha (Homo sapiens, UniProt P49840); assay: as above; details: for Relative Intensity, GSK3A: DMSO control = 1.0
T13 construct: endogenous in cells; host or cells: Jurkat clone E6-1 lysate
Protocol: as §1, §2, §3, §4, §5, §6

T12 sequence (P49841 whole entry): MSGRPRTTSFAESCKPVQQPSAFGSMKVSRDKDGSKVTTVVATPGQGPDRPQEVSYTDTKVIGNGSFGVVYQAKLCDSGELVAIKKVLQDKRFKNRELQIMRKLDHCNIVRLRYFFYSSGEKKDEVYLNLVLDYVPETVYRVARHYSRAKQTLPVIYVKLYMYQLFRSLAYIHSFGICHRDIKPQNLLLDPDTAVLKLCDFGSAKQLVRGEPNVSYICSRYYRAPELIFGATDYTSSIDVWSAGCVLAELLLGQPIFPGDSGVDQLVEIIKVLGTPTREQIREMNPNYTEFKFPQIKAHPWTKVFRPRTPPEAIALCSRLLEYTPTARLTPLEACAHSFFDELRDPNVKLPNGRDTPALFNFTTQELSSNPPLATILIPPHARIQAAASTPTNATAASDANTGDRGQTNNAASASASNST
protein kinase C beta, sequence (P05771 whole entry): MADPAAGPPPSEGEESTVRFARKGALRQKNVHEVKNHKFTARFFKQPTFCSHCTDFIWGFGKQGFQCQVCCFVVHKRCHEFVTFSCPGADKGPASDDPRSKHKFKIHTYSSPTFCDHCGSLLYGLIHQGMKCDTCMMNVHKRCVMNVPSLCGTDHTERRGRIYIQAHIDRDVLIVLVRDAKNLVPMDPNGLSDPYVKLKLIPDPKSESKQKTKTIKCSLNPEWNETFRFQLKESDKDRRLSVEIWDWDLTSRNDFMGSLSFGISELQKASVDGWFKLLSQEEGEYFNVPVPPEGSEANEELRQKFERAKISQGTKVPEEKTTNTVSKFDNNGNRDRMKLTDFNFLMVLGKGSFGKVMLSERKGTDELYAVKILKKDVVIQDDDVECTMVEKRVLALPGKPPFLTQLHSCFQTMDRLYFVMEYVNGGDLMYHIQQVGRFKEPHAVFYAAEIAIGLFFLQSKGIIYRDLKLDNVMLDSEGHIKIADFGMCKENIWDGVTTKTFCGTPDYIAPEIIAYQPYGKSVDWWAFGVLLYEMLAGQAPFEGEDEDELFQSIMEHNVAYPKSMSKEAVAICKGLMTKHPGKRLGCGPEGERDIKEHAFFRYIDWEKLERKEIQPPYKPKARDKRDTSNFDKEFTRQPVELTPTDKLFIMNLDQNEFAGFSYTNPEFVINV
T13 sequence (P49840 whole entry): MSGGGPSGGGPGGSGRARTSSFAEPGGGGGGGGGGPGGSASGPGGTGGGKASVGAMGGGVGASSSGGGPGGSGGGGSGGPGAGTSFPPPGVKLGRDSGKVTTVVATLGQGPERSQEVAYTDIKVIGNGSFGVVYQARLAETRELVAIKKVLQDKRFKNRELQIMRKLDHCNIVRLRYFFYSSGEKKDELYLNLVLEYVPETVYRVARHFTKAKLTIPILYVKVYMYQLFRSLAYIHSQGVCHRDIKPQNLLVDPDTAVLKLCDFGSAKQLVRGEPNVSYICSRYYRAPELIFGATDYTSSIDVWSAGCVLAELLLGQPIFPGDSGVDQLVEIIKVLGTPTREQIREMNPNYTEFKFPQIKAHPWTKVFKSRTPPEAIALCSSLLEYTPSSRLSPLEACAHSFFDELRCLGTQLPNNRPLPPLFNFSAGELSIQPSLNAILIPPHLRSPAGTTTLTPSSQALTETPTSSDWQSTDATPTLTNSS
T3 sequence (P07947 whole entry): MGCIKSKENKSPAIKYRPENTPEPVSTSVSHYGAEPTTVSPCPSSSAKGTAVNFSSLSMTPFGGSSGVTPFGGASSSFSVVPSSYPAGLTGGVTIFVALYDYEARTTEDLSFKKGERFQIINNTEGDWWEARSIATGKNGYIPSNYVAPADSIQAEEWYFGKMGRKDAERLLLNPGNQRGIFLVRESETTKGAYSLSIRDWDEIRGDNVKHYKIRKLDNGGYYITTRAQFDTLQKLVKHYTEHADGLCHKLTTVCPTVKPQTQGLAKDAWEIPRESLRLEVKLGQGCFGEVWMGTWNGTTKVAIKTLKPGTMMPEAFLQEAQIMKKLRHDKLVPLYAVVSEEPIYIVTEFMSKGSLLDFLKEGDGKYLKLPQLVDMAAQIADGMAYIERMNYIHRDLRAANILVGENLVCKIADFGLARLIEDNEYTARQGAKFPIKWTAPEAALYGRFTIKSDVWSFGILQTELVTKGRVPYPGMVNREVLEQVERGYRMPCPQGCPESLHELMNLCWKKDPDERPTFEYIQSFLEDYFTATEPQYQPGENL
T10 sequence (Q9UHD2 whole entry): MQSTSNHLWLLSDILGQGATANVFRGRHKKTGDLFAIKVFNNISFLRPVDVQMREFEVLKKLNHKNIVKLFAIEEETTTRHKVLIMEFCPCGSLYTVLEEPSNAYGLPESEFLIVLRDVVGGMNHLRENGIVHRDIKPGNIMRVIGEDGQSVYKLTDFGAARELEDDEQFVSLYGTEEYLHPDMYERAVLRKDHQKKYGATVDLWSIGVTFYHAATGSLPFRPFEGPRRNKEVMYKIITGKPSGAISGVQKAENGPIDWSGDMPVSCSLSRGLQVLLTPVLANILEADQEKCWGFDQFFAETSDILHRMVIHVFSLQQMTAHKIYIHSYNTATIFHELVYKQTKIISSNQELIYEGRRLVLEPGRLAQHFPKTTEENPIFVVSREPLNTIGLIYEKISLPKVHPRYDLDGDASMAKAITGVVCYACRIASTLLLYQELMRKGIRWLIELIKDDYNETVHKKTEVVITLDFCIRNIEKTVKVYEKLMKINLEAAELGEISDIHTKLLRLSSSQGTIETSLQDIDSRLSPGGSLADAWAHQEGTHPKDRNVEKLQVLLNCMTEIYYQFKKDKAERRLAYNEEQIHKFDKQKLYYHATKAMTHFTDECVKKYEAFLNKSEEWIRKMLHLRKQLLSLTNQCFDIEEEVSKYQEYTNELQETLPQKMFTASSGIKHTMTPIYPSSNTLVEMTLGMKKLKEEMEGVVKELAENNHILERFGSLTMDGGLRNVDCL
T9 sequence (P06241 whole entry): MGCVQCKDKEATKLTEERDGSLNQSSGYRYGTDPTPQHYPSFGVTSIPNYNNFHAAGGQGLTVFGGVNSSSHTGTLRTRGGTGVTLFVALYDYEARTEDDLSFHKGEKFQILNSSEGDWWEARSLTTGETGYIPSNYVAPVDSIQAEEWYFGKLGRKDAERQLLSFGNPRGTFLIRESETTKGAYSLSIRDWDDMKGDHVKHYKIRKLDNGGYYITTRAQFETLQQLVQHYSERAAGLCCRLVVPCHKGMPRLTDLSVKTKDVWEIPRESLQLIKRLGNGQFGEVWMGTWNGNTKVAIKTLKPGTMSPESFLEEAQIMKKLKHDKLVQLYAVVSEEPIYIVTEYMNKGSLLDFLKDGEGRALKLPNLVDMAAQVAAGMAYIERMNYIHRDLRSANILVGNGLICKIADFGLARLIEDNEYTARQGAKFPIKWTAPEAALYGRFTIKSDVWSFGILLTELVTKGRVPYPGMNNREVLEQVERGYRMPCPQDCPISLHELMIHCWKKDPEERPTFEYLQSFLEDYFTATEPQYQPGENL
T2 sequence (Q00535 whole entry): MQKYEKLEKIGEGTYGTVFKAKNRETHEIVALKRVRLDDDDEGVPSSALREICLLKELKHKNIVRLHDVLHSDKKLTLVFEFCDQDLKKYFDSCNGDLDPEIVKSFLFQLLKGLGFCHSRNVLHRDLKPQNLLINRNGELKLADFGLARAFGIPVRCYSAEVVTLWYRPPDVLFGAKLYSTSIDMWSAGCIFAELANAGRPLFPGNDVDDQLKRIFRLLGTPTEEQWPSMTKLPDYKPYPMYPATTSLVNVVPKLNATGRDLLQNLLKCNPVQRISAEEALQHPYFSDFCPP
T6 sequence (P16083 whole entry): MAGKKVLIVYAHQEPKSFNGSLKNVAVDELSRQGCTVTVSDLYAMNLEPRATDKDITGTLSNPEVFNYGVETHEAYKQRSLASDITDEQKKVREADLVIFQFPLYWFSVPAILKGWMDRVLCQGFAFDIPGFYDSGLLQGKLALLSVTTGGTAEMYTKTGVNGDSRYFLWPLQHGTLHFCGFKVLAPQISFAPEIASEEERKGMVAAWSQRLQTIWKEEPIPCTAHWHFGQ
T7 sequence (Q96GD4 whole entry): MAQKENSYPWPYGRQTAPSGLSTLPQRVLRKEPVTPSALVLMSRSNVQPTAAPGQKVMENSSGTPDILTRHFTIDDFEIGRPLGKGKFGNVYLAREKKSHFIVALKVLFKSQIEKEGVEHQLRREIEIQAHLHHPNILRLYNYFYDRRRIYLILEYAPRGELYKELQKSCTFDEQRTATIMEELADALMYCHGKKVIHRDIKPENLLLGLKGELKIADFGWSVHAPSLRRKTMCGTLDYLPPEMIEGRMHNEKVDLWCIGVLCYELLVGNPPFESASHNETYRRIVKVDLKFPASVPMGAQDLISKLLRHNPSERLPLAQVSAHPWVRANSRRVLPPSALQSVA

- Relative Intensity, Erk2 (MAPK1) ([1]; 0.074 uM in lysate): 0.89
- Relative Intensity, Erk2 (MAPK1) ([1]; 0.67 uM in lysate): 0.98
- Relative Intensity, CDK5 ([2]; 0.074 uM in lysate): 0.92
- Relative Intensity, CDK5 ([2]; 0.67 uM in lysate): 0.95
- Relative Intensity, YES (YES1) ([3]; 0.074 uM in lysate): 0.82
- Relative Intensity, YES (YES1) ([3]; 0.67 uM in lysate): 0.87
- Relative Intensity, CK1a (CSNK1A1) ([4]; 0.074 uM in lysate): 0.97
- Relative Intensity, CK1a (CSNK1A1) ([4]; 0.67 uM in lysate): 1.02
- Relative Intensity, CDK7 ([5]; 0.074 uM in lysate): 1.03
- Relative Intensity, CDK7 ([5]; 0.67 uM in lysate): 0.89
- Relative Intensity, NQO2 ([6]; 0.074 uM in lysate): 0.87
- Relative Intensity, NQO2 ([6]; 0.67 uM in lysate): 0.78
- Relative Intensity, AurB (AURKB) ([7]; 0.074 uM in lysate): 0.95
- Relative Intensity, AurB (AURKB) ([7]; 0.67 uM in lysate): 0.97
- Relative Intensity, CaMK2g ([8]; 0.074 uM in lysate): 0.83
- Relative Intensity, CaMK2g ([8]; 0.67 uM in lysate): 0.88
- Relative Intensity, FYN ([9]; 0.074 uM in lysate): 0.91
- Relative Intensity, FYN ([9]; 0.67 uM in lysate): 0.93
- Relative Intensity, TBK1 ([10]; 0.074 uM in lysate): 1.05
- Relative Intensity, TBK1 ([10]; 0.67 uM in lysate): 1.14
- Relative Intensity, PKCb (PRKCB1) (protein kinase C beta; 0.074 uM in lysate): 0.29
- Relative Intensity, PKCb (PRKCB1) (protein kinase C beta; 0.67 uM in lysate): 0.17
- IC50 (protein kinase C beta; Jurkat cell lysate, concentration at which relative intensity of the MS signal is 50% of DMSO control, read-out: RI50 (PKCb)): 21.5 nM
- Relative Intensity, PKCa (PRKCA) (protein kinase C alpha; 0.074 uM in lysate): 0.25
- Relative Intensity, PKCa (PRKCA) (protein kinase C alpha; 0.67 uM in lysate): 0.18
- IC50 (protein kinase C alpha; Jurkat cell lysate, concentration at which relative intensity of the MS signal is 50% of DMSO control, read-out: RI50 (PKCa)): 12.2 nM
- Relative Intensity, GSK3B ([11]; 0.074 uM in lysate): 0.54
- Relative Intensity, GSK3B ([11]; 0.67 uM in lysate): 0.28
- IC50 ([11]; Jurkat cell lysate, concentration at which relative intensity of the MS signal is 50% of DMSO control, read-out: RI50 (GSKb)): 95 nM
- Relative Intensity, GSK3A ([12]; 0.074 uM in lysate): 0.50
- Relative Intensity, GSK3A ([12]; 0.67 uM in lysate): 0.20
- IC50 ([12]; Jurkat cell lysate, concentration at which relative intensity of the MS signal is 50% of DMSO control, read-out: RI50 (GSKa)): 72.7 nM
Structure (SMILES): Cn1cc(C2=C(c3cn(CCCN)c4ccccc34)C(=O)NC2=O)c2ccccc21 [Bis VIII, Bisindolylmaleimide VIII]
